From patent US20160312261A1, “ENZYMATIC PRODUCTION OF CYTOSINIC NUCLEOSIDE ANALOGUES” (PLASMIA BIOTECH, S.L., priority 2015, published 2016)

Experiment: Thermal stability of Capecitabine on heating
Type: physicochemical
Settings: heating at 90° C. during 10 hours at neutral pH
Experimental: The one step process for the preparation of Capecitabine disclosed in WO 2011/104540 suffers from important loses of the final product. Capecitabine suffers from thermal instability at high temperatures, and after heating the product at 90° C. during 10 hours at neutral pH, up to 40% of the product is lost. On the contrary, the enzymatic process of the invention runs at milder conditions, using water as solvent and furnishing yields higher than 70%.

product lost after heating (thermal instability): up to 40%
SMILES: CCCCCOC(=O)Nc1nc(=O)n([C@@H]2O[C@H](C)[C@@H](O)[C@H]2O)cc1F [Capecitabine, N^4-pentyloxycarbonyl-5′-deoxy-5-fluorocytidine]
